In brackets after ≈: the same amount, converted by molar mass. Non-standard residues stand in square brackets, D forms with d. Residues, ends and D or L forms follow the SMILES beside them. ξ: configuration not given here. *: point of attachment. 1Naphthoyl = O=C(c1cccc2ccccc12)*; Palmitoyl = CCCCCCCCCCCCCCCC(=O)*; Myristoyl = CCCCCCCCCCCCCC(=O)*; Lauroyl = CCCCCCCCCCCC(=O)*; Decanoyl = CCCCCCCCCC(=O)*; ξAhp(2) = CCCCCC(N)C(=O)O
How the values were obtained:
E. coli 078 = format: cell-based, Escherichia coli
Method: (§1) The MIC values of the nano‐short peptides were determined according to standard protocols.^[ [63] ^] Bacterial strains were revived from cryopreservation and cultured in Mueller–Hinton broth (MHB) to logarithmic growth phase, then diluted to a final density of 0.5–1 × 10⁶ CFU mL^−1. Serial dilutions of the nano‐short peptides were prepared in 0.2% bovine serum albumin (BSA) using a 96‐well plate format. Equal volumes of peptide solutions and bacterial suspensions were combined and incubated at 37 °C for 20–22 h. Bacterial growth was assessed by measuring absorbance at 492 nm, with MHB alone (negative control) and untreated bacterial suspension (positive control) included for reference.

E. coli 25922 = format: cell-based, Escherichia coli
Method: as §1

E. coli UB1005 = format: cell-based, Escherichia coli
Method: as §1

P. aeruginosa 27853 = format: cell-based, Pseudomonas aeruginosa
Method: as §1

P. aeruginosa PAO1 = format: cell-based, Pseudomonas aeruginosa
Method: as §1

S. pullorum C7913 = format: cell-based
Method: as §1

S. typhimurium 14028 = format: cell-based, Salmonella typhimurium
Method: as §1

S. typhimurium 7731 = format: cell-based, Salmonella typhimurium
Method: as §1

S. aureus 25923 = format: cell-based, Staphylococcus aureus
Method: as §1

S. aureus 29213 = format: cell-based, Staphylococcus aureus
Method: as §1

MRSA 43300 = format: cell-based, Methicillin-Resistant Staphylococcus aureus
Method: as §1

E. faecalis 29212 = format: cell-based, Enterococcus faecalis
Method: as §1

S. epidermidis 12228 = format: cell-based, Staphylococcus epidermidis
Method: as §1

SMILES | MIC, E. coli 078 (E. coli 078) [µM] | MIC, E. coli 25922 (E. coli 25922) [µM] | MIC, E. coli UB1005 (E. coli UB1005) [µM] | MIC, P. aeruginosa 27853 (P. aeruginosa 27853) [µM] | MIC, P. aeruginosa PAO1 (P. aeruginosa PAO1) [µM] | MIC, S. pullorum C7913 (S. pullorum C7913) [µM] | MIC, S. typhimurium 14028 (S. typhimurium 14028) [µM] | MIC, S. typhimurium 7731 (S. typhimurium 7731) [µM] | MIC, S. aureus 25923 (S. aureus 25923) [µM] | MIC, S. aureus 29213 (S. aureus 29213) [µM] | MIC, MRSA 43300 (MRSA 43300) [µM] | MIC, E. faecalis 29212 (E. faecalis 29212) [µM] | MIC, S. epidermidis 12228 (S. epidermidis 12228) [µM]
CCCCCCCCCCCCCC(=O)N[C@H](CCCNC(=N)N)C(=O)N[C@@H](CCCNC(=N)N)C(=O)N[C@@H](CCCNC(=N)N)C(=O)N1CCC[C@H]1C(=O)O [Peptide C14] (Myristoyl-[dR]RRP-OH) | 64 (≈ 50.8 µg/mL) | 64 (≈ 50.8 µg/mL) | 128 (≈ 102 µg/mL) | 64 (≈ 50.8 µg/mL) | 32 (≈ 25.4 µg/mL) | 64 (≈ 50.8 µg/mL) | 128 (≈ 102 µg/mL) | 64 (≈ 50.8 µg/mL) | 32 (≈ 25.4 µg/mL) | 32 (≈ 25.4 µg/mL) | 16 (≈ 12.7 µg/mL) | 32 (≈ 25.4 µg/mL) | 32 (≈ 25.4 µg/mL)
C[C@H](N)C(=O)N[C@@H](C)C(=O)N[C@@H](C)C(=O)N[C@@H](C)C(=O)N[C@@H](C)C(=O)N[C@H](CCCNC(=N)N)C(=O)N[C@@H](CCCNC(=N)N)C(=O)N[C@@H](CCCNC(=N)N)C(=O)N1CCC[C@H]1C(=O)O [Peptide A5] (H-AAAAA[dR]RRP-OH) | 256 (≈ 240 µg/mL) | 256 (≈ 240 µg/mL) | 256 (≈ 240 µg/mL) | 256 (≈ 240 µg/mL) | 256 (≈ 240 µg/mL) | 256 (≈ 240 µg/mL) | 256 (≈ 240 µg/mL) | 256 (≈ 240 µg/mL) | 256 (≈ 240 µg/mL) | 256 (≈ 240 µg/mL) | 256 (≈ 240 µg/mL) | 256 (≈ 240 µg/mL) | 256 (≈ 240 µg/mL)
CCCCCCCCCCCCCCCC(=O)N[C@H](CCCNC(=N)N)C(=O)N[C@@H](CCCNC(=N)N)C(=O)N[C@@H](CCCNC(=N)N)C(=O)N1CCC[C@H]1C(=O)O [Peptide C16] (Palmitoyl-[dR]RRP-OH) |  |  |  |  | 32 (≈ 26.3 µg/mL) | 256 (≈ 210 µg/mL) |  |  | 32 (≈ 26.3 µg/mL) | 32 (≈ 26.3 µg/mL) | 32 (≈ 26.3 µg/mL) | 32 (≈ 26.3 µg/mL) | 32 (≈ 26.3 µg/mL)
N=C(N)NCCC[C@H](NC(=O)c1cccc2ccccc12)C(=O)N[C@H](CCCNC(=N)N)C(=O)N[C@@H](CCCNC(=N)N)C(=O)N1CCC[C@H]1C(=O)O [Nap] (1Naphthoyl-R[dR]RP-OH) | 256 (≈ 189 µg/mL) | 256 (≈ 189 µg/mL) | 256 (≈ 189 µg/mL) | 256 (≈ 189 µg/mL) | 256 (≈ 189 µg/mL) | 256 (≈ 189 µg/mL) | 256 (≈ 189 µg/mL) | 256 (≈ 189 µg/mL) | 256 (≈ 189 µg/mL) | 256 (≈ 189 µg/mL) | 256 (≈ 189 µg/mL) | 256 (≈ 189 µg/mL) | 256 (≈ 189 µg/mL)
C[C@H](N)C(=O)N[C@@H](C)C(=O)N[C@@H](C)C(=O)N[C@H](CCCNC(=N)N)C(=O)N[C@@H](CCCNC(=N)N)C(=O)N[C@@H](CCCNC(=N)N)C(=O)N1CCC[C@H]1C(=O)O [Peptide A3] (H-AAA[dR]RRP-OH) | 256 (≈ 204 µg/mL) | 256 (≈ 204 µg/mL) | 256 (≈ 204 µg/mL) | 256 (≈ 204 µg/mL) | 256 (≈ 204 µg/mL) | 256 (≈ 204 µg/mL) | 256 (≈ 204 µg/mL) | 256 (≈ 204 µg/mL) | 256 (≈ 204 µg/mL) | 256 (≈ 204 µg/mL) | 256 (≈ 204 µg/mL) | 256 (≈ 204 µg/mL) | 256 (≈ 204 µg/mL)
C[C@H](N)C(=O)N[C@@H](C)C(=O)N[C@@H](C)C(=O)N[C@@H](C)C(=O)N[C@H](CCCNC(=N)N)C(=O)N[C@@H](CCCNC(=N)N)C(=O)N[C@@H](CCCNC(=N)N)C(=O)N1CCC[C@H]1C(=O)O [Peptide A4] (H-AAAA[dR]RRP-OH) | 256 (≈ 222 µg/mL) | 256 (≈ 222 µg/mL) | 256 (≈ 222 µg/mL) | 256 (≈ 222 µg/mL) | 256 (≈ 222 µg/mL) | 256 (≈ 222 µg/mL) | 256 (≈ 222 µg/mL) | 256 (≈ 222 µg/mL) | 256 (≈ 222 µg/mL) | 256 (≈ 222 µg/mL) | 256 (≈ 222 µg/mL) | 256 (≈ 222 µg/mL) | 256 (≈ 222 µg/mL)
CCCCCC(N)C(=O)NC(CCCCC)C(=O)NC(CCCCC)C(=O)N[C@H](CCCNC(=N)N)C(=O)N[C@@H](CCCNC(=N)N)C(=O)N[C@@H](CCCNC(=N)N)C(=O)N1CCC[C@H]1C(=O)O (stereo partly shown) [Peptide B3] (H-[ξAhp(2)][ξAhp(2)][ξAhp(2)][dR]RRP-OH; N-terminus assumed) | 256 (≈ 247 µg/mL) | 256 (≈ 247 µg/mL) | 256 (≈ 247 µg/mL) | 256 (≈ 247 µg/mL) | 256 (≈ 247 µg/mL) | 256 (≈ 247 µg/mL) | 256 (≈ 247 µg/mL) | 256 (≈ 247 µg/mL) | 256 (≈ 247 µg/mL) | 256 (≈ 247 µg/mL) | 256 (≈ 247 µg/mL) | 256 (≈ 247 µg/mL) | 256 (≈ 247 µg/mL)
CCCCCCCCCCCC(=O)N[C@H](CCCNC(=N)N)C(=O)N[C@@H](CCCNC(=N)N)C(=O)N[C@@H](CCCNC(=N)N)C(=O)N1CCC[C@H]1C(=O)O [Peptide C12] (Lauroyl-[dR]RRP-OH) | 128 (≈ 98 µg/mL) | 128 (≈ 98 µg/mL) | 256 (≈ 196 µg/mL) | 128 (≈ 98 µg/mL) | 64 (≈ 49 µg/mL) | 128 (≈ 98 µg/mL) | 128 (≈ 98 µg/mL) | 128 (≈ 98 µg/mL) | 64 (≈ 49 µg/mL) | 64 (≈ 49 µg/mL) | 32 (≈ 24.5 µg/mL) | 64 (≈ 49 µg/mL) | 64 (≈ 49 µg/mL)
C[C@H](N)C(=O)N[C@@H](C)C(=O)N[C@@H](C)C(=O)N[C@@H](C)C(=O)N[C@@H](C)C(=O)N[C@@H](C)C(=O)N[C@H](CCCNC(=N)N)C(=O)N[C@@H](CCCNC(=N)N)C(=O)N[C@@H](CCCNC(=N)N)C(=O)N1CCC[C@H]1C(=O)O [Peptide A6] (H-AAAAAA[dR]RRP-OH) | 256 (≈ 259 µg/mL) | 256 (≈ 259 µg/mL) | 256 (≈ 259 µg/mL) | 256 (≈ 259 µg/mL) | 256 (≈ 259 µg/mL) | 256 (≈ 259 µg/mL) | 256 (≈ 259 µg/mL) | 256 (≈ 259 µg/mL) | 256 (≈ 259 µg/mL) | 256 (≈ 259 µg/mL) | 256 (≈ 259 µg/mL) | 256 (≈ 259 µg/mL) | 256 (≈ 259 µg/mL)
CCCCCCCCCC(=O)N[C@H](CCCNC(=N)N)C(=O)N[C@@H](CCCNC(=N)N)C(=O)N[C@@H](CCCNC(=N)N)C(=O)N1CCC[C@H]1C(=O)O [Peptide C10] (Decanoyl-[dR]RRP-OH) | 256 (≈ 189 µg/mL) | 256 (≈ 189 µg/mL) | 256 (≈ 189 µg/mL) | 256 (≈ 189 µg/mL) | 256 (≈ 189 µg/mL) | 256 (≈ 189 µg/mL) | 256 (≈ 189 µg/mL) | 256 (≈ 189 µg/mL) | 256 (≈ 189 µg/mL) | 256 (≈ 189 µg/mL) | 128 (≈ 94.5 µg/mL) | 256 (≈ 189 µg/mL) | 128 (≈ 94.5 µg/mL)
